Square brackets hold non-standard residues; d marks the D form. Peptide text beside a SMILES is read from it. Pro(cis-4-CF3) = O=C(O)[C@@H]1C[C@H](C(F)(F)F)CN1; Pro(trans-4-F) = O=C(O)[C@@H]1C[C@@H](F)CN1; Phe(4-Cl) = N[C@@H](Cc1ccc(Cl)cc1)C(=O)O; Pro(cis-4-F) = O=C(O)[C@@H]1C[C@H](F)CN1; Pro(4,4-F2) = O=C(O)[C@@H]1CC(F)(F)CN1; Pro(5S-Me) = C[C@H]1CC[C@@H](C(=O)O)N1; Dab(3S-OH) = NC[C@H](O)[C@H](N)C(=O)O; Met(O2) = CS(=O)(=O)CC[C@H](N)C(=O)O; Lys(iPr) = CC(C)NCCCC[C@H](N)C(=O)O; Met(O) = CS(=O)CC[C@H](N)C(=O)O; ΔZArg = N=C(N)NCC/C=C(\N)C(=O)O; Lys(Me) = CNCCCC[C@H](N)C(=O)O; dOrn = NCCC[C@@H](N)C(=O)O; hSer = N[C@@H](CCO)C(=O)O; NMeA = CN[C@@H](C)C(=O)O; Orn = NCCC[C@H](N)C(=O)O
Assays:
Experiment in all cases: MIC, broth microdilution (CLSI), reference strain
Details in all cases: CAMHB
[1] = system: Staphylococcus aureus ATCC 13709
[2] = system: Escherichia coli ATCC 25922
[3] = system: Acinetobacter baumannii ATCC 19606
[4] = system: Pseudomonas aeruginosa ATCC 27853

Sa: MIC Staphylococcus aureus ATCC 13709 [1] | Ec: MIC Escherichia coli ATCC 25922 [2] | Ab: MIC Acinetobacter baumannii ATCC 19606 [3] | Pa: MIC Pseudomonas aeruginosa ATCC 27853 [4] | Structure (SMILES)
++ (≤8 μg/mL) | + (≤32 μg/mL) | − (>32 μg/mL) | − (>32 μg/mL) | CC(C)NCCCC[C@H](NC(=O)[C@H](Cc1cnc[nH]1)NC(=O)[C@@H]1CCCN1C(=O)[C@@H](CCCN)NC(=O)CNC(=O)[C@H](C)NC(=O)[C@@H](NC(=O)[C@@H](N)CCCCN)[C@@H](O)CN)C(=O)N[C@H](CCCNC(=N)N)C(N)=O [24.127] (H-K[Dab(3S-OH)]AG[dOrn]PH[Lys(iPr)][dR]-NH2)
++ (≤8 μg/mL) | − (>32 μg/mL) | − (>32 μg/mL) | − (>32 μg/mL) | C[C@H](NC(=O)[C@@H](NC(=O)[C@@H](N)CCCCN)[C@@H](O)CN)C(=O)NCC(=O)N[C@H](CCCN)C(=O)N1CCC[C@H]1C(=O)N[C@@H](Cc1cnc[nH]1)C(=O)N[C@@H](CCCN)C(=O)N[C@H](CCCNC(=N)N)C(N)=O [24.128] (H-K[Dab(3S-OH)]AG[dOrn]PH[Orn][dR]-NH2)
− (>32 μg/mL) | − (>32 μg/mL) | − (>32 μg/mL) | − (>32 μg/mL) | C[C@H](NC(=O)[C@@H](NC(=O)[C@@H](N)CCCCN)[C@@H](O)CN)C(=O)NCC(=O)N[C@H](CCCN)C(=O)N1CCC[C@H]1C(=O)N[C@@H](CCO)C(=O)N[C@@H](CCCCN)C(=O)N/C(=C\CCNC(=N)N)C(=O)O [24.129] (H-K[Dab(3S-OH)]AG[dOrn]P[hSer]K[ΔZArg]-OH)
+ (≤32 μg/mL) | − (>32 μg/mL) | − (>32 μg/mL) | − (>32 μg/mL) | COCC[C@H](NC(=O)[C@@H]1CCCN1C(=O)[C@@H](CCCN)NC(=O)CNC(=O)[C@H](C)NC(=O)[C@@H](NC(=O)[C@@H](N)CCCCN)[C@@H](O)CN)C(=O)N[C@@H](CCCCN)C(=O)N/C(=C\CCNC(=N)N)C(=O)O [24.130] (H-K[Dab(3S-OH)]AG[dOrn]P[hSer](Me)K[ΔZArg]-OH)
+ (≤32 μg/mL) | + (≤32 μg/mL) | − (>32 μg/mL) | − (>32 μg/mL) | CSCC[C@H](NC(=O)[C@@H]1CCCN1C(=O)[C@@H](CCCN)NC(=O)CNC(=O)[C@H](C)NC(=O)[C@@H](NC(=O)[C@@H](N)CCCCN)[C@@H](O)CN)C(=O)N[C@@H](CCCCN)C(=O)N/C(=C\CCNC(=N)N)C(=O)O [24.131] (H-K[Dab(3S-OH)]AG[dOrn]PMK[ΔZArg]-OH)
− (>32 μg/mL) | − (>32 μg/mL) | − (>32 μg/mL) | − (>32 μg/mL) | C[C@H](NC(=O)[C@@H](NC(=O)[C@@H](N)CCCCN)[C@@H](O)CN)C(=O)NCC(=O)N[C@H](CCCN)C(=O)N1CCC[C@H]1C(=O)N[C@@H](CC[S+](C)[O-])C(=O)N[C@@H](CCCCN)C(=O)N/C(=C\CCNC(=N)N)C(=O)O (stereo partly drawn) [24.132] (H-K[Dab(3S-OH)]AG[dOrn]P[Met(O)]K[ΔZArg]-OH)
+ (≤32 μg/mL) | − (>32 μg/mL) | − (>32 μg/mL) | − (>32 μg/mL) | C[C@H](NC(=O)[C@@H](NC(=O)[C@@H](N)CCCCN)[C@@H](O)CN)C(=O)NCC(=O)N[C@H](CCCN)C(=O)N1CCC[C@H]1C(=O)N[C@@H](CCS(C)(=O)=O)C(=O)N[C@@H](CCCCN)C(=O)N/C(=C\CCNC(=N)N)C(=O)O [24.133] (H-K[Dab(3S-OH)]AG[dOrn]P[Met(O2)]K[ΔZArg]-OH)
++ (≤8 μg/mL) | + (≤32 μg/mL) | − (>32 μg/mL) | − (>32 μg/mL) | C[C@H](NC(=O)[C@@H](NC(=O)[C@@H](N)CCCCN)[C@@H](O)CN)C(=O)NCC(=O)N[C@H](CCCN)C(=O)N1CCC[C@H]1C(=O)N[C@@H](Cc1ccccc1)C(=O)N[C@@H](CCCCN)C(=O)N/C(=C\CCNC(=N)N)C(=O)O [24.134] (H-K[Dab(3S-OH)]AG[dOrn]PFK[ΔZArg]-OH)
− (>32 μg/mL) | − (>32 μg/mL) | − (>32 μg/mL) | − (>32 μg/mL) | COC[C@H](NC(=O)[C@@H]1CCCN1C(=O)[C@@H](CCCN)NC(=O)CNC(=O)[C@H](C)NC(=O)[C@@H](NC(=O)[C@@H](N)CCCCN)[C@@H](O)CN)C(=O)N[C@@H](CCCCN)C(=O)N/C(=C\CCNC(=N)N)C(=O)O [24.136] (H-K[Dab(3S-OH)]AG[dOrn]PS(Me)K[ΔZArg]-OH)
+ (≤32 μg/mL) | − (>32 μg/mL) | − (>32 μg/mL) | − (>32 μg/mL) | C[C@H](NC(=O)[C@@H](NC(=O)[C@@H](N)CCCCN)[C@@H](O)CN)C(=O)NCC(=O)N[C@H](CCCN)C(=O)N1CCC[C@H]1C(=O)N[C@H](C(=O)N[C@@H](CCCCN)C(=O)N/C(=C\CCNC(=N)N)C(=O)O)[C@@H](C)O [24.137] (H-K[Dab(3S-OH)]AG[dOrn]PTK[ΔZArg]-OH)
++ (≤8 μg/mL) | − (>32 μg/mL) | − (>32 μg/mL) | − (>32 μg/mL) | C[C@H](NC(=O)[C@@H](NC(=O)[C@@H](N)CCCCN)[C@@H](O)CN)C(=O)NCC(=O)N[C@H](CCCN)C(=O)N1CC(F)(F)C[C@H]1C(=O)N[C@@H](Cc1cnc[nH]1)C(=O)N[C@@H](CCCCN)C(=O)N/C(=C\CCNC(=N)N)C(=O)O [24.141] (H-K[Dab(3S-OH)]AG[dOrn][Pro(4,4-F2)]HK[ΔZArg]-OH)
+ (≤32 μg/mL) | + (≤32 μg/mL) | − (>32 μg/mL) | − (>32 μg/mL) | C[C@H](NC(=O)[C@@H](NC(=O)[C@@H](N)CCCCN)[C@@H](O)CN)C(=O)NCC(=O)N[C@H](CCCN)C(=O)N1C[C@H](F)C[C@H]1C(=O)N[C@@H](Cc1cnc[nH]1)C(=O)N[C@@H](CCCCN)C(=O)N/C(=C\CCNC(=N)N)C(=O)O [24.142] (H-K[Dab(3S-OH)]AG[dOrn][Pro(trans-4-F)]HK[ΔZArg]-OH)
++ (≤8 μg/mL) | + (≤32 μg/mL) | − (>32 μg/mL) | − (>32 μg/mL) | C[C@H](NC(=O)[C@@H](NC(=O)[C@@H](N)CCCCN)[C@@H](O)CN)C(=O)NCC(=O)N[C@H](CCCN)C(=O)N1C[C@@H](C(F)(F)F)C[C@H]1C(=O)N[C@@H](Cc1cnc[nH]1)C(=O)N[C@@H](CCCCN)C(=O)N/C(=C\CCNC(=N)N)C(=O)O [24.143] (H-K[Dab(3S-OH)]AG[dOrn][Pro(cis-4-CF3)]HK[ΔZArg]-OH)
++ (≤8 μg/mL) | + (≤32 μg/mL) | − (>32 μg/mL) | − (>32 μg/mL) | C[C@H](NC(=O)[C@@H](NC(=O)[C@@H](N)CCCCN)[C@@H](O)CN)C(=O)NCC(=O)N[C@H](CCCN)C(=O)N1C[C@@H](F)C[C@H]1C(=O)N[C@@H](Cc1cnc[nH]1)C(=O)N[C@@H](CCCCN)C(=O)N/C(=C\CCNC(=N)N)C(=O)O [24.144] (H-K[Dab(3S-OH)]AG[dOrn][Pro(cis-4-F)]HK[ΔZArg]-OH)
++ (≤8 μg/mL) | + (≤32 μg/mL) | − (>32 μg/mL) | − (>32 μg/mL) | C[C@H](NC(=O)[C@@H](NC(=O)[C@@H](N)CCCCN)[C@@H](O)CN)C(=O)NCC(=O)N[C@H](CCCN)C(=O)N1[C@@H](C)CC[C@H]1C(=O)N[C@@H](Cc1cnc[nH]1)C(=O)N[C@@H](CCCCN)C(=O)N/C(=C\CCNC(=N)N)C(=O)O [24.145] (H-K[Dab(3S-OH)]AG[dOrn][Pro(5S-Me)]HK[ΔZArg]-OH)
− (>32 μg/mL) | − (>32 μg/mL) | − (>32 μg/mL) | − (>32 μg/mL) | C[C@H](NC(=O)[C@@H](NC(=O)[C@@H](N)CCCCN)[C@@H](O)CN)C(=O)NCC(=O)N[C@H](CCCN)C(=O)N(C)[C@@H](C)C(=O)N[C@@H](Cc1cnc[nH]1)C(=O)N[C@@H](CCCCN)C(=O)N/C(=C\CCNC(=N)N)C(=O)O [24.146] (H-K[Dab(3S-OH)]AG[dOrn][NMeA]HK[ΔZArg]-OH)
− (>32 μg/mL) | − (>32 μg/mL) | − (>32 μg/mL) | − (>32 μg/mL) | CC(C)NCCCC[C@H](N)C(=O)N[C@H](C(=O)N[C@@H](C)C(=O)NCC(=O)N[C@H](CCCN)C(=O)N1CCC[C@H]1C(=O)N[C@@H](Cc1cnc[nH]1)C(=O)N[C@@H](CCCCN)C(=O)N/C(=C\CCNC(=N)N)C(=O)O)[C@@H](O)CN [24.147] (H-[Lys(iPr)][Dab(3S-OH)]AG[dOrn]PHK[ΔZArg]-OH)
++ (≤8 μg/mL) | ++ (≤8 μg/mL) | − (>32 μg/mL) | − (>32 μg/mL) | CNCCCC[C@H](N)C(=O)N[C@H](C(=O)N[C@@H](C)C(=O)NCC(=O)N[C@H](CCCN)C(=O)N1CCC[C@H]1C(=O)N[C@@H](Cc1ccc(Cl)cc1)C(=O)N[C@@H](CCCCN)C(=O)N/C(=C\CCNC(=N)N)C(=O)O)[C@@H](O)CN [24.148] (H-[Lys(Me)][Dab(3S-OH)]AG[dOrn]P[Phe(4-Cl)]K[ΔZArg]-OH)

Source: patent US10626144B2, “Peptide derivatives and uses thereof” (Nosopharm, priority 2014, dated 2020)
